# Measurements published in publication PMC7618597, “Dual Nurr1/RXR agonism of valerenic acid and synthetic mimetics enables dimer-selective Nurr1 modulation” (ACS medicinal chemistry letters, 2025).
# Key:
# RXRγ = molecular target: T1, RXRγ (Homo sapiens, UniProt P48443); test: Gal4-hybrid reporter gene assay, RXRγ; type: cell-based; settings: Gal4-hybrid reporter gene assay; for EC50: mean±S.E.M., n≥3
# T1 construct: pFA-CMV-hRXRγ-LBD; expressed in transfected cells; host or cells: HEK293T
# T1 sequence (P48443 231-459 limits assumed): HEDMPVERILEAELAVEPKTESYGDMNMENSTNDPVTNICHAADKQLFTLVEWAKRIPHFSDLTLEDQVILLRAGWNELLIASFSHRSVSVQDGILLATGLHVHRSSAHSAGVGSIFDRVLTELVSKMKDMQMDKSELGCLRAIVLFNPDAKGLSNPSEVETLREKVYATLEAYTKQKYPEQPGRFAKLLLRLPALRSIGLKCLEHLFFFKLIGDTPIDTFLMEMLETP
# Description: modified Eagle’s medium (DMEM), high glucose supplemented with 10% fetal calf serum (FCS), sodium pyruvate (1 mM), penicillin (100 U/mL), and streptomycin (100 μg/mL) at 37 °C and 5% CO2 and seeded in 96-well plates (3×10^4 cells/well). After 24 h, the medium was changed to Opti-MEM without supplements, and the cells were transiently transfected using Lipofectamine LTX reagent (Invitrogen) according to the manufacturer’s protocol. Five hours after transfection, the cells were incubated with the test compounds in Opti-MEM supplemented with penicillin (100 U/mL), streptomycin (100 μg/mL), and 0.1% DMSO for 15 h before luciferase activity was measured using the Dual -Glo Luciferase Assay System (Promega) according to the manufacturer’s protocol on a Tecan Spark l uminometer (Tecan Deutschland GmbH, Germany). Firefly luminescence was divided by Renilla luminescence and multiplied by 1000, resulting in relative light units (RLU) to normalize for transfection efficiency and cell growth. Fold activation was obtained by dividing the mean RLU of a sample by the mean RLU of the untreated control. All samples were tested in at least three biologically independent experiments in duplicates. For dose –response curve fitting and calculation of EC50 values, the equation “[Agonist] vs. response – Variable slope (four parameters)” was used in GraphPad Prism (version 5.04, GraphPad Software, La Jolla, CA, USA). […] (10 μM, NR4A) and bexarotene (1 µM, NR2B) served as the positive control. […]
# 150 μM in the same buffer containing 2-4% DMSO) in 21–26 injections (1 × 1 μL and 20 × 4 to 25 × 4 μL) with an injection interval of 120 s. As control experiments, the test compounds were titrated to the buffer, and the buffer was titrated to the protein under otherwise identical conditions. The heat rates of the compound-Nurr1 LBD titrations were analyzed using NanoAnalyze software (TA Instruments, New Castle, DE) with an independent binding model.
# [1] = test system: rat dopaminergic neuronal cells (N27); test: Nurr1-regulated gene expression (qPCR) in N27 cells; type: cell-based
# Description: Nurr1 is a key factor of neuroprotection and health of dopaminergic neurons. Therefore, we explored the impact of 2 (10 μM) and 3 (1 μM) on gene expression in rat dopaminergic neuronal cells (N27), which have been widely used to study Nurr1 agonists[17],[18],[38],[39]. Both compounds were non-toxic at the test concentrations in a multiplex toxicity assay (Figure S5). […] Modulation of Nurr1 LBD homodimerization and heterodimerization of the LDBs of Nurr1 and RXRα was investigated by HTRF as reported previously4. Nurr1 LBD or RXRα LBD proteins labeled with sGFP were titrated against a fixed concentration of Tb3+-cryptate as streptavidin conjugate ([…], Revvity) coupled to biotinylated Nurr1 LBD protein in the presence of test compounds at 30 μM or absence of compound as a negative control (apo). Assay solutions were prepared in buffer containing 25 mM HEPES pH 7.5, 150 mM KF, 5% (m/v) glycerol, 5 mM DTT, 0.1% (m/v) CHAPS and 1% DMSO. The FRET donor complex was formed from biotinylated Nurr1 LBD (final concentration 0.188 nM) and Tb-SA (0.375 nM) and was kept constant. For the homodimerization assay, the FRET acceptor consisted of sGFP-Nurr1 LBD, which was titrated from 0.5 μM, while free sGFP was added to keep the total GFP content stable at 0.5 μM. For the heterodimerization assay, the FRET acceptor sGFP-RXRα LBD was titrated from 6 μM, while free sGFP was added to keep a constant concentration of GFP at 6 μM. Samples were equilibrated at room temperature for 2 h and fluorescence intensities (FI) after excitation at 340 nm were recorded at 520 nm for sGFP acceptor fluorescence and at 620 for Tb-SA donor fluorescence on a SPARK plate reader (Tecan Group Ltd.). FI520 was divided by FI620 and multiplied by 10,000 to give a dimensionless HTRF signal. For dose-response curve fitting, the equation “[Agonist] versus response-variable slope (four parameters)” was used in GraphPad Prism ( version 9.5.1, GraphPad Software, La Jolla, CA). Evaluation of Nurr1-regulated gene expression. N27 rat dopaminergic neural cells (SCC048, Sigma-Aldrich, Darmstadt, Germany) were cultured in RPMI 1640 medium (Gibco, Thermo Fisher Scientific, Waltham, MA, USA) supplemented with 10% FCS, penicillin (100 U/mL), and streptomycin (100 μg/mL) at 37 °C and 5% and seeded in 12-well plates (3×10^5 cells/well). […] RNA concentration and purity were assessed using a NanoDrop One UV-vis spectrophotometer (Thermo Fisher Scientific) at 260/280 nm. […]
SMILES,max. act. (RXR) γ (RXRγ) [fold],EC50 (RXRγ) [nM],"mRNA expression of TH, FLRT2, BDNF, CRMP4 ([1]; 10 μM)","mRNA expression of XIAP, SESN3, CCND2, BIRC5, SOD2 ([1]; 10 μM)","mRNA expression of TH, FLRT2, BDNF, CRMP4 ([1]; 1 μM)","mRNA expression of XIAP, SESN3, CCND2, BIRC5, SOD2 ([1]; 1 μM)"
Cc1c2c(n(-c3ccc(CC(=O)O)cc3)c1C)CCC(F)(F)C2 [compound 2],44±1,3400,robustly upregulated,not induced,–,–
Cc1c(C)n(-c2ccc(CC(=O)O)cc2)c2ccc(F)cc12 [compound 3],67±4,1700,–,–,robustly upregulated,not induced
